From ChEMBL document CHEMBL3638529, “Spiro-oxindole MDM2 antagonists” (2015) come the findings set out here.

The target of the test is E3 ubiquitin-protein ligase Mdm2 (Homo sapiens, UniProt Q00987). As to the kind of experiment: Fluorescence-Polarization Binding Assay: The binding affinity of the MDM2 inhibitors was determined using an optimized, sensitive and quantitative fluorescence polarization-based (FP-based) binding assay using a recombinant human His-tagged MDM2 protein (residues 1-118) and a fluorescently tagged p53-based peptide.The design of the fluorescence probe was based upon a previously reported …. On the technique in general: Fluorescence polarisation rises when a labelled molecule tumbles more slowly, as on binding a larger partner.
Chain of E3 ubiquitin-protein ligase Mdm2 (Q00987 whole entry, the tested form may be a part): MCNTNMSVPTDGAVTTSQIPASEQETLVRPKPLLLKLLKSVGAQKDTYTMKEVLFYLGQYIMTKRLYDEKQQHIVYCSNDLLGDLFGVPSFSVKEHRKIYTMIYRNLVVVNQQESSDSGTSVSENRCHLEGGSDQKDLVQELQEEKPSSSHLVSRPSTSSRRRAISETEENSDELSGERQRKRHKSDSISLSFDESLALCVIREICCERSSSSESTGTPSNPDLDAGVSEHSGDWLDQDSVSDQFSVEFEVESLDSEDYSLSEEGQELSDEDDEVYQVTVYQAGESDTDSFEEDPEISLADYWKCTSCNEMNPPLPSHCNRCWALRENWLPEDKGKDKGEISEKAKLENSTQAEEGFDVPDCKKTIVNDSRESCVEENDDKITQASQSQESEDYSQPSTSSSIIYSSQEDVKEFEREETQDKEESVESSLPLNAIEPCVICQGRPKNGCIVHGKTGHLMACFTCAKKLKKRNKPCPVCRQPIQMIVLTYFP
Description: The assay was performed in the buffer: 100 mM potassium phosphate, pH 7.5; 100 ug/mL bovine gamma globulin; 0.02% sodium azide, 0.01% Triton X-100).
The IC50 is the concentration needed to halve the response being measured. On to `CC(C)(C)C[C@H]1N[C@@H](C(=O)NCCCNS(C)(=O)=O)[C@H](c2cccc(Cl)c2F)[C@@]12C(=O)Nc1cc(Cl)c(F)cc12`, for which the IC50 was below 1000 nM. For `CC(C)(C)C[C@H]1N[C@@H](C(=O)NCC[C@H]2CC[C@H](NS(C)(=O)=O)C2)[C@H](c2cccc(Cl)c2F)[C@@]12C(=O)Nc1cc(Cl)c(F)cc12` the value was below 1000 nM. For `CC(C)(C)C[C@H]1N[C@@H](C(=O)NCC[C@H]2CC[C@H](N)C2)[C@H](c2cccc(Cl)c2F)[C@@]12C(=O)Nc1cc(Cl)c(F)cc12` the value was below 1000 nM. For `CC(C)(C)C[C@H]1N[C@@H](C(=O)NCCNS(C)(=O)=O)[C@H](c2cccc(Cl)c2F)[C@@]12C(=O)Nc1cc(Cl)c(F)cc12` the value was below 1000 nM.
